This is an account of results in patent US20260048145A1, “COMPOSITIONS AND METHODS FOR TREATING DRUG ADDICTION” (The Children's Medical Center Corporation, priority 2022, published 2026).

For data set [1], the system named is hM4Di-expressing Tac2+ neurons. As to the kind of experiment: cFos induction after CNO following cocaine exposure, chemogenetic inhibition. It counts as in vivo, mice. The note with it: CNO 5 mg/kg i.p.
Data set [2] has as its system hM3Dq-expressing Tac2+ neurons. The experiment in a line: cFos induction after CNO, chemogenetic activation. It counts as in vivo, mice. The settings on record: CNO 2 mg/kg i.p.
Experimental: Mice were transcardially perfused with PBS followed by 4% paraformaldehyde. Brains were then placed in a 30% sucrose solution for 2 days. The brains were frozen in Optimal Cutting Temperature (OCT) embedding media and 16 μm (for FISH) or 40 μm (for IF) coronal sections were cut with a vibratome (Leica, no. CM3050 S). For FISH experiments, the slices were mounted on SuperFrost Plus slides, and air dried. The multi-color FISH experiments were performed following the instructions of RNAscope Fluorescent Multiplex Assay (ACD Bioscience). For IF, cryostat sections were collected and incubated overnight with blocking solution (1×PBS containing 5% goat serum, 2.5% BSA, and 0.1% Triton X-100), and then treated with the following primary antibodies, diluted with blocking solution, for 1 day at 4° C.: rabbit anti-cFos (1:2000, Synaptic systems, #226003), chicken anti-GFP (1:2000, Aves Labs, no. GFP-1010), and chicken anti-mCherry (1:2000, Novus Biologicals, no. NBP2-25158). Samples were then washed three times with washing buffer (1×PBS containing 0.1% Triton X-100) and incubated with the Alexa Fluor conjugated secondary antibodies for 2 h at room temperature. The sections were mounted and imaged using a Zeiss LSM800 confocal microscope or an Olympus VS120 Slide Scanning System. […]
Data set [3] deals with hM4Di-expressing Tac2+ neurons. The experiment in a line: Cocaine intravenous self-administration (cocaine-IVSA) with chemogenetic inhibition. The settings on record: CNO 5 mg/kg.
Data set [4] has as its system Tac2+ neurons (hM3Dq / hM4Di). As to the kind of experiment: Basal and cocaine-induced locomotion with chemogenetic manipulation of Tac2+ neurons. The settings on record: CNO; hM3Dq or hM4Di mice; 1-hour post-treatment. The format is in vivo.
Experimental: The experiment was conducted in an 8-chamber activity monitor system (Med Associates). Each test chamber (ENV-510 boxes) consists of a 27 cm×27 cm square base and 24-cm walls. […] Activity Monitor software (Med Associates) was used to generate trajectory maps. The distance traveled in the arena, and time spent in the center part of the arena, were recorded and analyzed. After each test session, the chambers were cleaned thoroughly with 20% ethanol.
The basal level of locomotion as well as cocaine-induced change of locomotor activity were assessed in the open field arena the same as the OFT. For chemogenetics experiments, 20 minutes after administration of either saline or CNO, mice were individually placed in the center of the test chamber, triggering the infra-red tracking system to record locomotor activity, as measured by the number of beam breaks. […] Different groups of mice were balanced across the 8 chambers to avoid potential environmental bias.
Data set [5] concerns hM3Dq-expressing Tac2+ neurons. As to the kind of experiment: Cocaine-CPP with chemogenetic excitation of Tac2+ neurons. It counts as in vivo. The settings on record: CNO 2 mg/kg plus cocaine 15 mg/kg; hM3Dq-expressing mice.
Experimental: (§1) To this end, a Cre-dependent AAV encoding a modified human M3 muscarinic receptor (hM3Dq) was introduced into NAc of Tac2-Cre mice (FIG. 5E). […] The cocaine-CPP test was then repeated, in which mice were conditioned with cocaine plus CNO in one chamber, while with saline in the other chamber. […] To test the effect of Tac2 neuronal inhibition on cocaine-CPP, a subthreshold cocaine CPP paradigm was applied, in which mice were conditioned with a lower dose of cocaine (10 mg/kg i.p.) in a shorter conditioning session (15-minutes per session)^10,46.
(§2) A two-compartment CPP chamber was used with one compartment with grid rod style floor and the other with mesh style floor (Med Associates). Chamber size is 25×19×17 cm (L×D×H). Mice trajectories were tracked by infra-red photobeam detectors, and the travel distance and the duration the mice spent in the two compartments were recorded. […]
(§3) For hM3Dq chemogenetics experiments, the Tac2-Cre mice were conditioned for two days to saline/saline injections in one chamber in the morning, and CNO (2 mg/kg)/cocaine (15 mg/kg) injection in the other in the afternoon (30 minutes confinement, 6 hours apart). […] The time spent in the cocaine-coupled chambers was recorded, and the CPP scores were calculated by subtracting the time spent in the pre-conditioning phase from the time spent in the post-conditioning phase.
Data set [6] concerns hM3Dq-expressing Tac2+ neurons. As to the kind of experiment: Cocaine intravenous self-administration (cocaine-IVSA) with chemogenetic excitation. The note with it: CNO 2 mg/kg.
Data set [7] concerns hM4Di-expressing Tac2+ neurons. The experiment in a line: Subthreshold cocaine-CPP with chemogenetic inhibition of Tac2+ neurons. The format is in vivo, mice. The note with it: CNO 5 mg/kg i.p.; cocaine 10 mg/kg i.p., 15-minutes sessions.
Experimental: as §1, §2, §3
The conditions of data set [8]: after administration; cited from earlier work.
Data set [9] relates to NAc Tac2+ neurons. As to the kind of experiment: Single-cell calcium imaging of Tac2+ neurons following acute cocaine injection. The note with it: for recorded Tac2+ neurons showing decreased activity / recorded Tac2+ neurons showing increased activity: cocaine 15 mg/kg i.p. It counts as in vivo, mice. The text has this:
To explore a potential role for Tac2^+ neurons in drug-related behavior, Tac2 neuronal activity was monitored using single-cell calcium imaging upon psychostimulant drug (cocaine) treatment. To this end, GCaMP6m, which reports calcium fluctuations and serves as a proxy for neuronal activity, was virally delivered into the NAc of Tac2-Cre mice using known techniques^41, and the fluorescence signal was monitored by a skull-attached miniaturized microscope through a gradient-index (GRIN) lens implanted above the virus injection site (FIG. 2B, FIGS. 1C-1D). […] After extracting calcium signal traces and corresponding calcium signal transients of individual neurons from raw imaging video (FIG. 2C, FIG. 1E), the Tac2 neuronal response to saline and cocaine administration was analyzed. The calcium transient frequency from 6 mice (saline: 361 neurons, cocaine 356 neurons) were sorted and presented as heatmaps (FIG. 2D). […] The neuronal activity of cocaine excited/inhibited Tac2^+ neurons in the initial phase were substantially altered following cocaine injection and later partially recovered in the decay phase (FIG. 2I). To further validate these findings, calcium activity traces were analyzed before and after saline or cocaine injection. 3.0-fold more cocaine inhibited neurons than cocaine excited neurons in the initial phase (FIGS. 1F-1H).
Two weeks after GRIN lens implantation surgery, a baseplate was implanted to mount the miniature microscope and to check the fluorescence signal. Freely moving in vivo imaging can be performed after the nVoke microscope (Inscopix) is attached to the fixed baseplate. All recordings were made at 10 frames per second, LED intensities were 0.6˜1.2 mW, and gain (1.5×) was used. The calcium traces were extracted using Inscopix Data Processing Software (version 1.6, Inscopix). The raw recording videos were cropped, spatially down-sampled (2×), spatially filtered (cut-offs: low 0.005 pixel^−1, high 0.500 pixel^−1), and motion-corrected (using a reference frame from the input movie). The spatial location of individual neurons and their associated calcium activity signals were identified using the extended constrained non-negative matrix factorization (CNMF-E) CNMF-c algorithm^53,54 and outputted temporal traces as dF over noise. The identified neurons were manually checked to exclude overlapping neurons, blood vessels, or fluorescent debris moving in and out of focus. The calcium signal traces were further deconvolved using OASIS (online active set method to infer spikes) methods to estimate underlying calcium signal transients. The data matrix containing calcium signal traces and calcium signal transients were subjected to custom MATLAB code for further analysis.
Mice were tested in the homecages and were pre-habituated in the test room and they received 3-day saline injection to reduce stress. On day 1, mice were attached with nVoke microscope 30 minutes before experiment. Prior to injection, 10 minute baseline was recorded, then mice were intraperitoneally injected with saline, and a 10 minute recording was performed after the injection. On day 2, mice were again attached with n Voke microscope, and recorded for 10 minute baseline. Then mice were injected with cocaine (15 mg/kg) intraperitoneally. The post-injection initial phase (0-10 minutes) and decay phase (50-60 minutes) were recorded. Two data sets of neuronal activity were used: calcium signal traces over time or calcium signal transients over time, to analyze treatment (saline or cocaine injection) responsive neurons (excited or inhibited by treatment), 10-minute windows of pre- and post-injection were compared. For saline injection responsive neurons, saline (−10-0 minutes) and saline (0-10 minutes) responses of the two groups were compared. For cocaine injection responsive neurons, the initial phase (0-10 minutes) and the decay phase (50-60 minutes) were compared with the pre-injection phase (−10-0 minutes). […]

Data set [10] deals with NAc Tac2+ neurons. The experiment in a line: Single-cell calcium imaging during cocaine-conditioned place preference. The note with it: post-conditioning. The format is in vivo, mice. As to the method: Next, the dynamics of Tac2 neuronal activity was analyzed during cocaine reward-contextual association. To this end, single-cell calcium imaging was applied to a cocaine-conditioned place preference (CPP) test (FIG. 3A). In the pre-conditioning session, mice were allowed to freely explore the two chambers with differential contextual patterns while calcium signal being recorded. In the conditioning sessions, mice were given alternate saline and cocaine (15 mg/kg) injections (6 hours apart) and were confined to a specific chamber paired with saline or cocaine. In the post-conditioning session, mice were again allowed to freely explore the two chambers while calcium signal being recorded (FIG. 3A). […] After extracting the calcium signal traces, and corresponding calcium signal transients of individual neurons in pre-conditioning and post-conditioning sessions, signal traces or transient frequencies were compared during the periods when mice are in saline-coupled chamber or cocaine-coupled chamber (staying time>5 seconds). […] To further validate these findings, calcium activity traces were analyzed when mice stayed in the saline chamber or cocaine chamber. […] Moreover, by focusing on the short period around the mice entering the cocaine chamber (−5 seconds to 5 seconds, regarding the entering as 0 second), it was determined that the neuronal activity of the cocaine chamber excited neurons (neurons with […] calcium signal in cocaine chamber) increased rapidly when mice entered the cocaine chamber, while the cocaine chamber inhibited neurons (neurons with […] calcium signal in cocaine chamber) decreased their activity when mice entered the cocaine chamber (FIGS. 3F-3G).
Custom-made two-compartment CPP chambers (50×25×25 cm, L×D×H) were used with visual cues: the floor and the walls of one chamber were decorated with black horizontal stripes and the other chamber was decorated with yellow diagonal stripes. The modified cocaine-CPP consists of three sessions. […] The time spent in different chambers was recorded, the less preferred chamber was assigned as the cocaine chamber and used to condition cocaine injections, while the other chamber was assigned as the saline chamber and used to condition saline injections. […] Finally, the next day following conditioning, in the post-condition recording session, calcium activity of mice was again recorded while freely exploring the two chambers for 15 minutes. The mouse trajectories were recorded using a webcam (Logitech) with top view, and the time when the mice staying or entering chambers was analyzed using Etho Vision XT 11 (Noldus) and was also manually inspected. […]

In another data set the test system is Tac2 mRNA. As to the kind of experiment: Cocaine-CPP after shRNA knock-down of Tac2 in NAc. It counts as in vivo, mice. The settings on record: AAV Tac2 shRNA vs control shRNA, bilateral NAc injection. The procedure: Numbers were calculated by summating Tac2^+ cells in serial 3 slides of the NAc region of individual mice (˜Bregma+1.2). […] Mice were subjected to 2-days conditioning, with each morning given saline injection followed by confined to saline-coupled chamber for 30 minutes, and in the afternoon, mice were given cocaine injection followed by confined to cocaine chamber for 30 minutes. Left: time spent in the cocaine-paired chambers pre- and post-conditioning, ****, p<0.0001, paired t-test. Right: the CPP scores were calculated by subtracting the time spent in pre-conditioning phase from the time spent in post-conditioning phase, ns, p=0.0975, unpaired t-test. […] FIGS. 10G-10I show dose-dependent response under cocaine-IVSA of Tac2 knockdown mice. The numbers of lever presses (FIG. 10G). Lever accuracy (FIG. 10H), and numbers of infusions (FIG. 10I) are shown. Data in FIGS. 10B-10I are presented as mean±SEM.
Using calcium recording and neuronal activity manipulation, a causal relationship has been established between Tac2 neuronal activity and cocaine-associated behaviors (CPP and IVSA). It was then explored how Tac2^+ neurons might execute their functions. […]
Small hairpin RNA (shRNA) for mouse Tac2 gene (NM_009312.2) were selected based on previous studies^50. […] The AAV viruses were injected into NAc regions and knock-down efficiency were evaluated by Tac2 RNA FISH.

[11] abbreviates: decay phase 50-60 minutes, calcium transient frequency.
[12] abbreviates: initial phase 0-10 minutes, calcium transient frequency, 356 neurons, 6 mice.

For `C[N+]1([O-])CCN(C2=Nc3cc(Cl)ccc3Nc3ccccc32)CC1` [CNO, clozapine-N-oxide], the “cFos induction in hM4Di-expressing neurons following cocaine exposure” value in data set [1] is reported as “significantly decreased”. Moreover, in data set [2], the “cFos induction in hM3Dq-expressing neurons” value was “resulted in cFos induction” and the “cFos induction in mCherry-expressing (control) neurons” value is recorded as “not in the mCherry-expressing neurons”. In addition, in [3], the “cocaine infusions, hM4Di vs mCherry group” value is listed as “significantly lower number of cocaine infusions” and the “lever presses, hM4Di vs mCherry group” value is listed as “significantly higher number of lever presses”. Further, the “lever accuracy, hM4Di vs mCherry group” value in [3] (0.33 mg/kg/infusion) is recorded as “comparable lever accuracy”. Also, in data set [4], the basal locomotion entry is “affected neither basal locomotion” and the cocaine-induced hyperlocomotion result is listed as “nor cocaine-induced hyperlocomotion”. In addition, the “cocaine-induced CPP” value in [5] was “completely abolished”. Besides, the “cocaine infusions, hM3Dq vs mCherry group” value in data set [6] was “fewer cocaine infusions”. Moreover, the “lever accuracy, hM3Dq vs mCherry group” value in data set [6] (0.33 mg/kg/infusion) is recorded as “reduced lever accuracy”. In addition, the “lever presses, hM3Dq vs mCherry group” value in [6] (cocaine 0.03, 0.1, 0.3, 1 mg/kg/infusion) is on record as “significantly fewer lever presses”. Moreover, the “cocaine CPP in hM4Di-expressing vs mCherry-expressing mice” value in [7] is “significantly higher”.
In the case of `COC(=O)[C@H]1[C@@H](OC(=O)c2ccccc2)C[C@@H]2CC[C@H]1N2C` [cocaine], in data set [8], the “decay of cocaine levels in brain and plasma” value is “decay one hour later”; the “time to peak of cocaine levels in brain and plasma” value was at most 10 min. The “initial phase cocaine excited neurons still excited in the decay phase” value in the data set with NAc Tac2+ neurons [9] (29/49 neurons) came out at 59.2%. Further, the “initial phase cocaine inhibited neurons still inhibited in the decay phase” value in the data set with NAc Tac2+ neurons [9] (30/117 neurons) is listed as 25.6%. In the data set with NAc Tac2+ neurons [9] (setting [11]), the “recorded Tac2+ neurons showing decreased activity” value was 14.9% and the “recorded Tac2+ neurons showing increased activity” value is listed as 11.5%. In the data set on NAc Tac2+ neurons [9] (setting [12]), the “recorded Tac2+ neurons showing decreased activity” value came to 32.9% and the “recorded Tac2+ neurons showing increased activity” value came out at 13.8%. Besides, in the data set on NAc Tac2+ neurons [9] (initial phase, calcium activity traces), the “cocaine inhibited neurons compared to cocaine excited neurons” value worked out at 3.0 fold. Also, the “Tac2+ neurons inhibited by cocaine compared to those excited” value in the data set with NAc Tac2+ neurons [9] (initial phase, calcium transient frequency) was found to be 2.4 fold. In addition, the “neurons excited in the cocaine chamber” value with NAc Tac2+ neurons [10] (calcium activity traces, 40 of 370) is recorded as 10.8%. Besides, the “neurons inhibited in the cocaine chamber” value in the data set on NAc Tac2+ neurons [10] (calcium activity traces, 59 of 370) came to 16.0%. The “Tac2+ neurons with elevated activity in the cocaine chamber” value with NAc Tac2+ neurons [10] (calcium transient frequency, 16 of 370) is given as 4.3%. In the data set on NAc Tac2+ neurons [10] (calcium transient frequency, 62 of 370), the “Tac2+ neurons with reduced activity in the cocaine chamber” value is 16.8%.

B1: Tac2-shRNA: AAV construct expressing small hairpin RNA for mouse Tac2 gene (SEQ ID NO: 3, 4) (nucleic acid, listed as Mus musculus)
sense: GATCCGCCGCCTCAACCCCATAGCAATTAGAAGCTTGTAATTGCTATGGGGTTGAGGCTTTTTTT
For the molecule B1, the cocaine-induced place preference entry with Tac2 mRNA was “neither affected”.
